From ChEMBL document CHEMBL4680266, “Iodoquinazolinones bearing benzenesulfonamide as human carbonic anhydrase I, II, IX and XII inhibitors: Synthesis, biological evaluation and radiosensitizing activity” (Eur J Med Chem, 2020)

How the values were obtained:
[1] = molecular target: Carbonic anhydrase 9 (Homo sapiens, UniProt Q16790); assay: Inhibition of recombinant human carbonic anhydrase 9 incubated for 15 mins prior to testing measured for 10 to 100 secs by phenol red-based stopped-flow CO2 hydration assay
[2] = test system: HepG2; assay: Cytotoxicity against human HepG2 cells assessed as reduction in cell viability by MTT assay; format: functional, cell-based
[3] = test system: HCT-116; assay: Cytotoxicity against human HCT-116 cells assessed as reduction in cell viability irradiated with 8 Gy gamma radiation and measured after 24 hrs by MTT assay; format: functional, cell-based; details: HCT-116, light or radiation study
[4] = test system: MCF7; assay: Cytotoxicity against human MCF7 cells assessed as reduction in cell viability irradiated with 8 Gy gamma radiation and measured after 24 hrs by MTT assay; format: functional, cell-based; details: MCF7, light or radiation study
[5] = test system: HCT-116; assay: Cytotoxicity against human HCT-116 cells assessed as reduction in cell viability by MTT assay; format: functional, cell-based
[6] = test system: WI-38; assay: Cytotoxicity against human WI-38 cells assessed as reduction in cell viability by MTT assay; format: cell-based
[7] = test system: MCF7; assay: Cytotoxicity against human MCF7 cells assessed as reduction in cell viability by MTT assay; format: functional, cell-based
[8] = test system: HepG2; assay: Cytotoxicity against human HepG2 cells assessed as reduction in cell viability irradiated with 8 Gy gamma radiation and measured after 24 hrs by MTT assay; format: functional, cell-based; details: HepG2, light or radiation study
[9] = test system: WI-38; assay: Cytotoxicity against human WI-38 cells assessed as reduction in cell viability irradiated with 8 Gy gamma radiation and measured after 24 hrs by MTT assay; format: cell-based; details: WI-38, light or radiation study

Compound	Ki [1] [nM]	further results
Cc1cc([N+](=O)[O-])ccc1NC(=O)CSc1nc2ccc(I)cc2c(=O)n1-c1ccc(S(N)(=O)=O)cc1	59.1	–
Cc1ccccc1NC(=O)CSc1nc2ccc(I)cc2c(=O)n1-c1ccc(S(N)(=O)=O)cc1	429	–
Cc1cccc([N+](=O)[O-])c1NC(=O)CSc1nc2ccc(I)cc2c(=O)n1-c1ccc(S(N)(=O)=O)cc1	90.3	–
CCc1ccc(NC(=O)CSc2nc3ccc(I)cc3c(=O)n2-c2ccc(S(N)(=O)=O)cc2)cc1	67.3	–
NS(=O)(=O)c1ccc(-n2c(SCC(=O)Nc3ccccc3)nc3ccc(I)cc3c2=O)cc1	337	–
NS(=O)(=O)c1ccc(-n2c(S)nc3ccc(I)cc3c2=O)cc1	2230	–
Cc1cccc(NC(=O)CSc2nc3ccc(I)cc3c(=O)n2-c2ccc(S(N)(=O)=O)cc2)c1	244	–
COc1ccc(NC(=O)CSc2nc3ccc(I)cc3c(=O)n2-c2ccc(S(N)(=O)=O)cc2)cc1	73.2	–
Cc1ccc(NC(=O)CSc2nc3ccc(I)cc3c(=O)n2-c2ccc(S(N)(=O)=O)cc2)cc1	91.7	–

These reach a lower Ki [1]. Values come first.

Ki [1] [nM]	Compound	further results
55.2	CCc1cccc(NC(=O)CSc2nc3ccc(I)cc3c(=O)n2-c2ccc(S(N)(=O)=O)cc2)c1	–
46.9	NS(=O)(=O)c1ccc(-n2c(SCC(=O)Nc3ccc([N+](=O)[O-])cc3[N+](=O)[O-])nc3ccc(I)cc3c2=O)cc1	–
34.5	CCOc1ccc(NC(=O)CSc2nc3ccc(I)cc3c(=O)n2-c2ccc(S(N)(=O)=O)cc2)cc1	–
30.4	COc1cc(NC(=O)CSc2nc3ccc(I)cc3c(=O)n2-c2ccc(S(N)(=O)=O)cc2)cc(OC)c1OC	–
29.1	COc1cc(NC(=O)CSc2nc3ccc(I)cc3c(=O)n2-c2ccc(S(N)(=O)=O)cc2)cc(OC)c1	–
29.1	CCc1ccccc1NC(=O)CSc1nc2ccc(I)cc2c(=O)n1-c1ccc(S(N)(=O)=O)cc1	IC50 [2]: 1780 nM; IC50 [3]: 19 nM; IC50 [4]: 31 nM; IC50 [5]: 1940 nM; IC50 [6]: 5710 nM; IC50 [7]: 3070 nM; IC50 [8]: 41 nM; IC50 [9]: 3140 nM
